Assay results reported in ChEMBL document CHEMBL5346907, “Discovery of a novel oral type Ⅰ CDK8 inhibitor against acute myeloid leukemia” (Eur J Med Chem, 2023).

Legend:
[1] = tested on: HL-60; experiment: Antiproliferative activity against human HL-60 cells incubated for 48 hrs by CCK8 assay; type: functional
[2] = tested on: MV4-11; experiment: Antiproliferative activity against human MV4-11 cells incubated for 48 hrs by CCK8 assay; type: functional
[3] = tested on: MGC-803; experiment: Antiproliferative activity against human MGC-803 cells incubated for 48 hrs by CCK8 assay; type: functional
[4] = tested on: HCT-116; experiment: Antiproliferative activity against human HCT-116 cells incubated for 48 hrs by CCK8 assay; type: functional
[5] = target: CDK8/Cyclin C (Homo sapiens) (UniProt P49336+P24863); experiment: Inhibition of CDK8/Cyclin C (unknown origin) at 1 uM preincubated for 10 mins followed by substrate addition measured for 60 to 120 mins by HTRF assay relative to control; type: protein-complex assay; details: time 70-130 min
[6] = target: CDK7/Cyclin H/MNAT1 (Homo sapiens) (UniProt P51946+P50613+P51948); experiment: Inhibition of CDK7/Cyclin H/MAT1 (unknown origin) at 1 uM preincubated for 10 mins followed by substrate addition measured for 60 to 120 mins by HTRF assay relative to control; type: protein-complex assay; details: time 70-130 min
[7] = target: Cyclin-dependent kinase 13/Cyclin-K (Homo sapiens) (UniProt Q14004+O75909); experiment: Inhibition of CDK13/Cyclin K (unknown origin) at 1 uM preincubated for 10 mins followed by substrate addition measured for 60 to 120 mins by HTRF assay relative to control; type: protein-complex assay; details: time 70-130 min
[8] = target: CDK6/cyclin D1 (Homo sapiens) (UniProt P24385+Q00534); experiment: Inhibition of CDK6/Cyclin D1 (unknown origin) at 1 uM preincubated for 10 mins followed by substrate addition measured for 60 to 120 mins by HTRF assay relative to control; type: protein-complex assay; details: time 70-130 min
[9] = target: CDK9/cyclin T1 (Homo sapiens, UniProt P50750); experiment: Inhibition of CDK9/Cyclin T1 (unknown origin) preincubated for 10 mins followed by substrate addition measured for 60 to 120 mins by HTRF assay; type: protein-complex assay
[10] = target: CDK6/cyclin D1 (Homo sapiens, UniProt Q00534); experiment: Inhibition of CDK6/Cyclin D1 (unknown origin) preincubated for 10 mins followed by substrate addition measured for 60 to 120 mins by HTRF assay; type: protein-complex assay
[11] = target: Tyrosine-protein kinase Fes/Fps (Homo sapiens) (UniProt P07332); experiment: Inhibition of FES (unknown origin) at 1 uM preincubated for 10 mins followed by substrate addition measured for 60 to 120 mins by HTRF assay relative to control; details: time 70-130 min
[12] = target: Epithelial discoidin domain-containing receptor 1 (Homo sapiens) (UniProt Q08345); experiment: Inhibition of DDR1 (unknown origin) at 1 uM preincubated for 10 mins followed by substrate addition measured for 60 to 120 mins by HTRF assay relative to control; details: time 70-130 min
[13] = target: Insulin receptor-related protein (Homo sapiens) (UniProt P14616); experiment: Inhibition of IRR (unknown origin) at 1 uM preincubated for 10 mins followed by substrate addition measured for 60 to 120 mins by HTRF assay relative to control; details: time 70-130 min
[14] = target: Ephrin type-B receptor 3 (Homo sapiens) (UniProt P54753); experiment: Inhibition of EPHB3 (unknown origin) at 1 uM preincubated for 10 mins followed by substrate addition measured for 60 to 120 mins by HTRF assay relative to control; details: time 70-130 min
[15] = target: Tyrosine-protein kinase Lyn (Homo sapiens) (UniProt P07948); experiment: Inhibition of LYNb (unknown origin) at 1 uM preincubated for 10 mins followed by substrate addition measured for 60 to 120 mins by HTRF assay relative to control; details: time 70-130 min
[16] = target: NT-3 growth factor receptor (Homo sapiens) (UniProt Q16288); experiment: Inhibition of TRKC (unknown origin) at 1 uM preincubated for 10 mins followed by substrate addition measured for 60 to 120 mins by HTRF assay relative to control; details: time 70-130 min
[17] = target: Focal adhesion kinase 1 (Homo sapiens) (UniProt Q05397); experiment: Inhibition of FAK (unknown origin) at 1 uM preincubated for 10 mins followed by substrate addition measured for 60 to 120 mins by HTRF assay relative to control; details: time 70-130 min
[18] = target: Tyrosine-protein kinase FRK (Homo sapiens) (UniProt P42685); experiment: Inhibition of FRK (unknown origin) at 1 uM preincubated for 10 mins followed by substrate addition measured for 60 to 120 mins by HTRF assay relative to control; details: time 70-130 min
[19] = target: Macrophage-stimulating protein receptor (Homo sapiens) (UniProt Q04912); experiment: Inhibition of RON (unknown origin) at 1 uM preincubated for 10 mins followed by substrate addition measured for 60 to 120 mins by HTRF assay relative to control; details: time 70-130 min
[20] = target: Proto-oncogene tyrosine-protein kinase Src (Homo sapiens) (UniProt P12931); experiment: Inhibition of SRC (unknown origin) at 1 uM preincubated for 10 mins followed by substrate addition measured for 60 to 120 mins by HTRF assay relative to control; details: time 70-130 min
[21] = target: Ephrin type-B receptor 2 (Homo sapiens) (UniProt P29323); experiment: Inhibition of EPHB2 (unknown origin) at 1 uM preincubated for 10 mins followed by substrate addition measured for 60 to 120 mins by HTRF assay relative to control; details: time 70-130 min
[22] = target: Ephrin type-A receptor 7 (Homo sapiens) (UniProt Q15375); experiment: Inhibition of EPHA7 (unknown origin) at 1 uM preincubated for 10 mins followed by substrate addition measured for 60 to 120 mins by HTRF assay relative to control; details: time 70-130 min
[23] = tested on: HL-60; experiment: Induction of apoptosis in human HL-60 cells assessed as late apoptotic cells at 1 uM incubated for 48 hrs by annexin V-FITC/PI staining based flow cytometry (reference value: 1.07 %); type: functional
[24] = tested on: HL-60; experiment: Induction of apoptosis in human HL-60 cells assessed as late apoptotic cells at 10 uM incubated for 48 hrs by annexin V-FITC/PI staining based flow cytometry (reference value: 1.07 %); type: functional
[25] = Tmax in Sprague-Dawley rat at 10 mg/kg, po; type: ADME, organism-based; details: in vivo
[26] = AUC (0 to infinity) in Sprague-Dawley rat at 10 mg/kg, po; type: ADME, organism-based; parameters: dose 10 mg/kg, route po; details: in vivo
[27] = Bioavailability in Sprague-Dawley rat at 10 mg/kg, po; type: ADME, organism-based; details: in vivo
[28] = Half life in Sprague-Dawley rat at 2 mg/kg, iv; type: ADME, organism-based; details: in vivo
[29] = Acute toxicity in C57BL/6 mouse assessed as histopathological change in heart at 2000 mg/kg, IG measured for 14 days by H&E staining based analysis; type: organism-based; details: in vivo, po, 336 h, time 14 day
[30] = Acute toxicity in C57BL/6 mouse assessed as histopathological change in kidney at 2000 mg/kg, IG measured for 14 days by H&E staining based analysis; type: organism-based; details: in vivo, po, 336 h, time 14 day
[31] = tested on: C1498; experiment: Downregulation of STAT5 S726 expression in mouse C1498 cells allografted in AML Balb/C mouse model administered orally daily for 15 days measured after 3 weeks by Western blot analysis; type: functional, cell-based; details: dose 40-80 mg/kg, route po, time 15.0 day
[32] = tested on: C1498; experiment: Downregulation of STAT1 S727 expression in mouse C1498 cells allografted in AML Balb/C mouse model administered orally daily for 15 days measured after 3 weeks by Western blot analysis; type: functional, cell-based; details: dose 40-80 mg/kg, route po, time 15.0 day

Chain of Ephrin type-B receptor 3 (Homo sapiens) (P54753 whole entry): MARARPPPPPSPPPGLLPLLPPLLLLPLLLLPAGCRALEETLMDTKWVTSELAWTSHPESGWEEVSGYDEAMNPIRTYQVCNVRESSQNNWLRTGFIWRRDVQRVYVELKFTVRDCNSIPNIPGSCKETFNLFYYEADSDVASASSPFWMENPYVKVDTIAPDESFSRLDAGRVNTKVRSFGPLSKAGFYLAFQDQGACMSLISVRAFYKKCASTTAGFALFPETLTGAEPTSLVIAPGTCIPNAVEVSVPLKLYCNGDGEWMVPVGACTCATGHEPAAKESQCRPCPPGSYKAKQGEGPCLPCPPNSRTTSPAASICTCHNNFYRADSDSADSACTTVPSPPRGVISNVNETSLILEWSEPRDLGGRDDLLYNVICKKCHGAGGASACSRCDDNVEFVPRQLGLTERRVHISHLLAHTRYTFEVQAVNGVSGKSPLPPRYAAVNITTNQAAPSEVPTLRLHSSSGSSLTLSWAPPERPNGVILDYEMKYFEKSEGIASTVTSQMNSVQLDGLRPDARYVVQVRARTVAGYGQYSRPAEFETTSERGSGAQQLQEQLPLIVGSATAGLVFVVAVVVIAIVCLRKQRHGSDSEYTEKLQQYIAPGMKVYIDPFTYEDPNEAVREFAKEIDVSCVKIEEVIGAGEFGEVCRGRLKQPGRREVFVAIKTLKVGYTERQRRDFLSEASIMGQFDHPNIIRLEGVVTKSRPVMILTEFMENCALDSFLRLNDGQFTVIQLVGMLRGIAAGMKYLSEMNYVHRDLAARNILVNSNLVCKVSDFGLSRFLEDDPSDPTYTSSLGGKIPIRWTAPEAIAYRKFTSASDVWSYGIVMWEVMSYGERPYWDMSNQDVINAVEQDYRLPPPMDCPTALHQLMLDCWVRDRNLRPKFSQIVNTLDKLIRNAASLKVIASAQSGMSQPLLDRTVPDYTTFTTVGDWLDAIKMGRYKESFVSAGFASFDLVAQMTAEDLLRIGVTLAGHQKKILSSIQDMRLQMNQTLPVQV
Chain of Cyclin-dependent kinase 13/Cyclin-K (Homo sapiens) (O75909 whole entry, looked up): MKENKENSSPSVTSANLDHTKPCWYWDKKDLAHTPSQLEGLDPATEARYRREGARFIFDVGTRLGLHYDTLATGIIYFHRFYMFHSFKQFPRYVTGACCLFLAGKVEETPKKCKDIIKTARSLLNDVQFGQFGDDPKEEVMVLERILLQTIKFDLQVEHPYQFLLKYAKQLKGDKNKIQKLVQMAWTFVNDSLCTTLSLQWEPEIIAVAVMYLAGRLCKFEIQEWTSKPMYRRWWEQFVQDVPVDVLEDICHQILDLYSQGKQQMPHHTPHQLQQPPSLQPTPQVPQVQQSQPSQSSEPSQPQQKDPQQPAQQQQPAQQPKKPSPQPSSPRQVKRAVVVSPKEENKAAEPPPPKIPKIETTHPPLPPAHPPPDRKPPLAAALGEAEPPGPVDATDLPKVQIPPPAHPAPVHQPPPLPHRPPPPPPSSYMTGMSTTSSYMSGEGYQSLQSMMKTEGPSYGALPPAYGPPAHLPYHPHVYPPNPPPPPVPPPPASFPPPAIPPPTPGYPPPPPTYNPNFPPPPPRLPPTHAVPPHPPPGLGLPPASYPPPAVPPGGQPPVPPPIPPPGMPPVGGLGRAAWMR
Chain of Cyclin-dependent kinase 13/Cyclin-K (Homo sapiens) (Q14004 whole entry, looked up): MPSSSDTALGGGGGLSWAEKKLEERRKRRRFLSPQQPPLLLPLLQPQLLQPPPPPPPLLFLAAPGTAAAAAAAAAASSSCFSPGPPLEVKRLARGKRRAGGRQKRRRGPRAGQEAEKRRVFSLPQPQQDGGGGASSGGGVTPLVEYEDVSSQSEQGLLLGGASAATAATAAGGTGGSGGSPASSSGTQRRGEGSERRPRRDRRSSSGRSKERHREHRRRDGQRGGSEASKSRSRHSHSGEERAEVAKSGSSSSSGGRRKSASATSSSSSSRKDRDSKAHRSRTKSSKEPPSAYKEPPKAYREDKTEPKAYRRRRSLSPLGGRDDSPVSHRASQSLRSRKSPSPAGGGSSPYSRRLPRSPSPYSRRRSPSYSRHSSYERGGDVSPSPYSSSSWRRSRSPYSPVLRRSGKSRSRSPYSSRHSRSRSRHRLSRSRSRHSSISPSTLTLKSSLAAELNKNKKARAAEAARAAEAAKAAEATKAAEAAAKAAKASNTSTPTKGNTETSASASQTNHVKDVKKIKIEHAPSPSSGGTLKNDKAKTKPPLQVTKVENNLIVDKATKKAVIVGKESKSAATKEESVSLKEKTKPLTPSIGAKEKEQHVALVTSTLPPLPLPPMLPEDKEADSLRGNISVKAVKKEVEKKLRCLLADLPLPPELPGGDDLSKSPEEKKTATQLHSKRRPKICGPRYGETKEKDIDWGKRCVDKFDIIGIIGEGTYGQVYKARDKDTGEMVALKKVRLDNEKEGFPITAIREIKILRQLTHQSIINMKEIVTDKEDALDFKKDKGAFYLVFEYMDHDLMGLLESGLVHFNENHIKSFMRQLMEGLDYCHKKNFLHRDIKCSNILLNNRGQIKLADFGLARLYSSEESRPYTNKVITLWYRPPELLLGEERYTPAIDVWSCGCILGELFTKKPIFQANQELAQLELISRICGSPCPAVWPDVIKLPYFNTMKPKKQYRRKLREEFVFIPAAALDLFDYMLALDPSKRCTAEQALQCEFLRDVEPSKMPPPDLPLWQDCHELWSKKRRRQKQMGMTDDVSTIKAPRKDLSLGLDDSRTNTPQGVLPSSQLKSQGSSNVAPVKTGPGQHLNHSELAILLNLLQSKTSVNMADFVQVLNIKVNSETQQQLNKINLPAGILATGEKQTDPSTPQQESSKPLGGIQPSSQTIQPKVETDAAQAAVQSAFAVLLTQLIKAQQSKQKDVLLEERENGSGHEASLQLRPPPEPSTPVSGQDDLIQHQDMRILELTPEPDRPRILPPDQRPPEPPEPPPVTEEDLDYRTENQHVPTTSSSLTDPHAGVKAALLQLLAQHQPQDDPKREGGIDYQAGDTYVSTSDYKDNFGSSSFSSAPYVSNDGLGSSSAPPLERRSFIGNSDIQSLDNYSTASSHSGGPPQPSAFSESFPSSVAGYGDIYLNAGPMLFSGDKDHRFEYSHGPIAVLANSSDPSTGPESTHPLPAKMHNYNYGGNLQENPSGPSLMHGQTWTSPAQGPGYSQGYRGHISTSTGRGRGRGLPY
Chain of Insulin receptor-related protein (Homo sapiens) (P14616 27-742 limits assumed): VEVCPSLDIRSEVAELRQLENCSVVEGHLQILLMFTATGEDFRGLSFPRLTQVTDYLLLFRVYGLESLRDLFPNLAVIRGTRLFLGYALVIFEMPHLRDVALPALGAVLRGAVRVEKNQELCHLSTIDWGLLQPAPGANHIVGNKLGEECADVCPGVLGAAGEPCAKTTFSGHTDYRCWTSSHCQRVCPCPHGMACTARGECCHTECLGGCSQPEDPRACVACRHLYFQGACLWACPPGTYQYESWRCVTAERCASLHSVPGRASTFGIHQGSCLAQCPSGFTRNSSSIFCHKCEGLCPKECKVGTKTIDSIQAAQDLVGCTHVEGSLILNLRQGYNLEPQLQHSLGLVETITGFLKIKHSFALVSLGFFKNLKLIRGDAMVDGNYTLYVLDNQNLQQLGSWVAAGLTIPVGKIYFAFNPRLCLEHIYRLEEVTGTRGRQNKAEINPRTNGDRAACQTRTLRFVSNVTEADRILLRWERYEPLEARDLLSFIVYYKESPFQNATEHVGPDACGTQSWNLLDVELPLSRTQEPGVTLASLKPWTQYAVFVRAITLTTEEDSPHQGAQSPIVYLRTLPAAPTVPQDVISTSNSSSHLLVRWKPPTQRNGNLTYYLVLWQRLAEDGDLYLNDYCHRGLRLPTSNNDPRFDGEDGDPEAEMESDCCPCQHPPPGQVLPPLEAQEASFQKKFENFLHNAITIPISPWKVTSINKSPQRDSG
Chain of Insulin receptor-related protein (Homo sapiens) (P14616 747-1297 limits assumed): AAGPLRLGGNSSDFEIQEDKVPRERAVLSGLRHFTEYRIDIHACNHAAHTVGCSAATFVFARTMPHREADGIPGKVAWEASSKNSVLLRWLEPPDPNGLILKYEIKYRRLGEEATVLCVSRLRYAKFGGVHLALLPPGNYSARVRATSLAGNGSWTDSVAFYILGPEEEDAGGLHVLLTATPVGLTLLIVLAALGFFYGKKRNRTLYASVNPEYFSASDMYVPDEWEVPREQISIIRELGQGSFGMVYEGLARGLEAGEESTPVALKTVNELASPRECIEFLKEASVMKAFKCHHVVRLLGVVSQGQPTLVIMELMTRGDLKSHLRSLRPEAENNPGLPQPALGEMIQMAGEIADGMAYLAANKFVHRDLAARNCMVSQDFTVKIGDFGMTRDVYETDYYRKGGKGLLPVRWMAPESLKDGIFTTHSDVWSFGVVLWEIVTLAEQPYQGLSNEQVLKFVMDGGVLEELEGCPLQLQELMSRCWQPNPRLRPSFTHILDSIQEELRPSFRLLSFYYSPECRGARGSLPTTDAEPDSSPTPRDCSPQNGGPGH
Chain of Proto-oncogene tyrosine-protein kinase Src (Homo sapiens) (P12931 2-536 limits assumed): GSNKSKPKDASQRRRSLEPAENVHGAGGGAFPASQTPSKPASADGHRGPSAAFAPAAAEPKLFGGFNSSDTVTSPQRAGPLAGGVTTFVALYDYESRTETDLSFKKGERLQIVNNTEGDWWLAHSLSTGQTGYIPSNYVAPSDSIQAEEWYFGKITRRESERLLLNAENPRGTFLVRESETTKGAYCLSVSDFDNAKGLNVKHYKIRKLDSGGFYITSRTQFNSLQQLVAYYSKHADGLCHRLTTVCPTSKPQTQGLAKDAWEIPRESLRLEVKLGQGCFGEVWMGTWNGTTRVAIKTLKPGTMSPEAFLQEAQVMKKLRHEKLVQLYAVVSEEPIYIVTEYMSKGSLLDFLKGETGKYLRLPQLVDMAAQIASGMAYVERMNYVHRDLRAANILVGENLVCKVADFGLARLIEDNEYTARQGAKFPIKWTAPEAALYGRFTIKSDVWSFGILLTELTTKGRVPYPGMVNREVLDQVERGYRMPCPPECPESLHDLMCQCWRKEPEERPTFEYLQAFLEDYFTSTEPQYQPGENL

`NC(=O)c1cccc(-c2cnc3[nH]ccc3c2)c1` gave a GI50 [1] of 1000 nM, a GI50 [2] of 4610 nM and a GI50 [3] greater than 50000 nM. The GI50 [4] was greater than 50000 nM, the inhibition [5] was 38.9% and the inhibition [6] was 18.9%. The inhibition [7] was 9.63%, the inhibition [8] was 0.37% and the IC50 [9] was 711 nM. The IC50 [10] was 594 nM, the inhibition [11] was 26.7% and the inhibition [12] was 20%. The inhibition [13] was 16.2%, the inhibition [14] was 13.5% and the inhibition [15] was 13.1%. It also gave an inhibition [16] of 10.8%, an inhibition [17] of 6.16% and an inhibition [18] of 3.82%. For the same compound, the inhibition [19] was 0.43%, the inhibition [20] was 0% and the inhibition [21] was 0%. The inhibition [22] was 0%, the Activity [23] was 38% and the Activity [24] was 2.43%. The Tmax [25] was 60 min, the AUC(0-inf) [26] was 434 ng·h/mL and the bioavailability [27] was 28%. For the same compound, the half-life [28] was 48.6 min, the Activity [29] was “Non-Toxic” and the Activity [30] was “Non-Toxic”. For the same compound, the Activity [31] was “Dose-Dependent Effect” and the Activity [32] was “Dose-Dependent Effect”.
